Values joined by “and” are separate entries in the source; they are usually repeats but may differ in a detail not shown here. Equal entries are not always repeated.
How the values were obtained:
α-7 cells = assay: Effect of sodium orthovanadate on proliferation of PTPα-overexpressing cells (cell count); type: cell-based, Fischer rat; conditions: 10% FCS, 48 h
Description: (§1) 1. Cells were grown on 5 cm petri dishes in DME medium with 10% FCS for 48 h. After 48 h of growth, each dish of α-7, α-21, and α-29 cells contained about 0.4 x 10^5 to 0.6 x 10^5 cells, and each dish of REF-neo cells contained 1.8 x 10^5 cells. The medium was discarded, and fresh medium containing 10% FCS and the indicated concentration (below) of sodium orthovanadate was added to the cells. After 48 h of culture in this medium the cells from two replicate dishes were harvested and counted. […]

α-29 cells = assay: as above; type: cell-based, Fischer rat; conditions: 10% FCS, 48 h
Description: as §1

REF-neo cells = assay: Effect of sodium orthovanadate on proliferation of control cells (cell count); type: cell-based, Fischer rat; conditions: 10% FCS
Description: as §1
(§2) 2. Cells (control cells = REF-neo, PTPα-overexpressing cells = α-21) were grown on 5 cm petri dishes in DME medium with 10% FCS for 48 h. The medium was discarded, and fresh medium containing 10% FCS and the indicated concentration (below) of sodium orthovanadate was added to the cells. After 72 h of culture in this medium the cells from two replicate dishes were harvested and counted. The results are shown in Table 3 below and are essentially the same as in 1 above.

α-21 cells [1] = assay: Effect of sodium orthovanadate on proliferation of PTPα-overexpressing cells (cell count); type: cell-based, Fischer rat; conditions: for cell count, set #3 / cell count, set #2 (+0.1% FCS) / Number of cells/5 cm dish / cell count, set #1 (+10% FCS): α-21; for cell count, set #3 / Number of cells/5 cm dish / cell count, set #1 (+10% FCS): 10% FCS; for cell count, set #3: then another 48 h in 10% FCS without vanadate
Description: as §1, §2
3. PTPα-overexpressing cells (α-21) were grown for 48 h (to about 60% confluency) in DME medium containing 10% FCS. The medium was removed and replaced with medium containing the indicated concentration of sodium orthovanadate (below) and either 10% (sets #1 and #3) or 0.1% FCS (set #2). The cells were cultured for 48 h and counted (sets #1 and 2), or the medium was removed from set #3 and replaced with medium containing 10% FCS without sodium orthovanadate and cultured for another 48 h before counting. […]

[2] = test system: REF α-21 PTPα-overexpressing cells; assay: Tumourigenesis by REF α-21 cells grown and injected with vanadate; type: in vivo, nude mice
Description: The α-21 cells were grown in DME medium containing 10% FCS and then in DME medium with 0.1% FCS in the presence of 50 µM sodium orthovanadate for 48 h. The cells were then harvested by trypsinisation, centrifuged to pellet the cells, and the cell pellet resuspended in DME containing 50 µM sodium orthovanadate. Other α-21 cells were grown and prepared in a similar manner, except in the absence of sodium orthovanadate throughout. The resuspended cells (plus or minus vanadate) were subcutaneously injected into nude mice (2 x 10^6 cells/mouse, 4 mice for each treatment), and nine days later the tumour size was measured.

α-21 cells [3] = assay: Colony forming ability in soft agar in the presence of sodium orthovanadate; type: cell-based, Fischer rat; conditions: 9 days
Description: The α-21 cells were grown in soft agar in the presence of the indicated concentration of sodium orthovanadate (below) on duplicate dishes. After 9 days the colonies were counted on each dish and the approximate size of the colonies noted. […]

[Na+].[Na+].[Na+].[O]=[V]([O-])([O-])[O-] [Vanadate, sodium orthovanadate]
Number of cells/5 cm dish (α-7 cells; vanadate 5 µM): 1.72 x 10^6 cells/5 cm dish | Number of cells/5 cm dish (α-7 cells; vanadate 30 µM): 1.41 x 10^6 cells/5 cm dish | Number of cells/5 cm dish (α-7 cells; vanadate 60 µM): 1.18 x 10^6 cells/5 cm dish | Number of cells/5 cm dish (α-7 cells; vanadate 120 µM): 5.80 x 10^5 cells/5 cm dish | Number of cells/5 cm dish (α-29 cells; vanadate 5 µM): 1.62 x 10^6 cells/5 cm dish | Number of cells/5 cm dish (α-29 cells; vanadate 30 µM): 7.20 x 10^5 cells/5 cm dish | Number of cells/5 cm dish (α-29 cells; vanadate 60 µM): 4.70 x 10^5 cells/5 cm dish | Number of cells/5 cm dish (α-29 cells; vanadate 120 µM): 2.10 x 10^5 cells/5 cm dish | Number of cells/5 cm dish (REF-neo cells; vanadate 5 µM, 48 h): 1.10 x 10^6 cells/5 cm dish | Number of cells/5 cm dish (REF-neo cells; vanadate 5 µM, 72 h): 1.90 x 10^6 cells/5cm dish | Number of cells/5 cm dish (REF-neo cells; vanadate 30 µM, 48 h): 1.04 x 10^6 cells/5 cm dish | Number of cells/5 cm dish (REF-neo cells; vanadate 30 µM, 72 h): 1.80 x 10^6 cells/5cm dish | Number of cells/5 cm dish (REF-neo cells; vanadate 60 µM, 48 h): 9.90 x 10^5 cells/5 cm dish | Number of cells/5 cm dish (REF-neo cells; vanadate 60 µM, 72 h): 1.60 x 10^6 cells/5cm dish | Number of cells/5 cm dish (REF-neo cells; vanadate 120 µM, 48 h): 7.60 x 10^5 cells/5 cm dish | Number of cells/5 cm dish (REF-neo cells; vanadate 120 µM, 72 h): 6.70 x 10^5 cells/5cm dish | toxicity to α-21 cells (resumption of proliferation once vanadate is removed) (α-21 cells [1]; comparison of cell numbers in sets #1 and 3): not irreversibly toxic | cell count, set #3 (α-21 cells [1]; vanadate 5 µM, 48 h): 2.90 x 10^6 | cell count, set #2 (+0.1% FCS) (α-21 cells [1]; vanadate 5 µM, 48 h): 1.18 x 10^6 | Number of cells/5 cm dish (α-21 cells [1]; vanadate 5 µM, 48 h): 1.42 x 10^6 cells/5 cm dish | cell count, set #1 (+10% FCS) (α-21 cells [1]; vanadate 5 µM, 48 h): 1.30 x 10^6 | Number of cells/5 cm dish (α-21 cells [1]; vanadate 5 µM, 72 h): 1.20 x 10^6 cells/5cm dish | cell count, set #3 (α-21 cells [1]; vanadate 30 µM, 48 h): 1.46 x 10^6 | cell count, set #2 (+0.1% FCS) (α-21 cells [1]; vanadate 30 µM, 48 h): 5.40 x 10^5 | Number of cells/5 cm dish (α-21 cells [1]; vanadate 30 µM, 48 h): 7.00 x 10^5 cells/5 cm dish | cell count, set #1 (+10% FCS) (α-21 cells [1]; vanadate 30 µM, 48 h): 5.00 x 10^5 | Number of cells/5 cm dish (α-21 cells [1]; vanadate 30 µM, 72 h): 4.80 x 10^5 cells/5cm dish | cell count, set #3 (α-21 cells [1]; vanadate 60 µM, 48 h): 9.60 x 10^5 | cell count, set #2 (+0.1% FCS) (α-21 cells [1]; vanadate 60 µM, 48 h): 3.80 x 10^5 | Number of cells/5 cm dish (α-21 cells [1]; vanadate 60 µM, 48 h): 3.70 x 10^5 cells/5 cm dish | cell count, set #1 (+10% FCS) (α-21 cells [1]; vanadate 60 µM, 48 h): 3.20 x 10^5 | Number of cells/5 cm dish (α-21 cells [1]; vanadate 60 µM, 72 h): 2.60 x 10^5 cells/5cm dish | cell count, set #3 (α-21 cells [1]; vanadate 120 µM, 48 h): 5.20 x 10^5 | cell count, set #2 (+0.1% FCS) (α-21 cells [1]; vanadate 120 µM, 48 h): 2.00 x 10^5 | Number of cells/5 cm dish (α-21 cells [1]; vanadate 120 µM, 48 h): 1.60 x 10^5 cells/5 cm dish | cell count, set #1 (+10% FCS) (α-21 cells [1]; vanadate 120 µM, 48 h): 1.80 x 10^5 | Number of cells/5 cm dish (α-21 cells [1]; vanadate 120 µM, 72 h): 1.76 x 10^5 cells/5cm dish | average tumour size ([2]; 4 mice, α-21 cells grown and injected with 50 µM sodium orthovanadate, nine days later): 0.618 cm^2 | tumour size ([2]; individual mice, α-21 cells grown and injected with 50 µM sodium orthovanadate, subcutaneous, 2 x 10^6 cells/mouse, nine days later): 0.30 x 0.8 cm = 0.24 cm^2 and 0.70 x 1.5 cm = 1.05 cm^2 and 0.40 x 0.7 cm = 0.28 cm^2 and 0.75 x 1.2 cm = 0.90 cm^2 | tumours smaller than those arising from cells grown and injected in the absence of vanadate ([2]; on average, 50 µM sodium orthovanadate, nine days): 2.6 times | Number of colonies Average (α-21 cells [3]; vanadate 5 µM): 1260 | Number of colonies Exp 1 (α-21 cells [3]; vanadate 5 µM): 1127 | Number of colonies Exp 2 (α-21 cells [3]; vanadate 5 µM): 1392 | Number of colonies Average (α-21 cells [3]; vanadate 10 µM): 1196 | Number of colonies Exp 1 (α-21 cells [3]; vanadate 10 µM): 1458 | Number of colonies Exp 2 (α-21 cells [3]; vanadate 10 µM): 934 | Number of colonies Average (α-21 cells [3]; vanadate 20 µM): 667 | Number of colonies Exp 1 (α-21 cells [3]; vanadate 20 µM): 692 | Number of colonies Exp 2 (α-21 cells [3]; vanadate 20 µM): 641 | Number of colonies Average (α-21 cells [3]; vanadate 40 µM): 292 | Number of colonies Exp 1 (α-21 cells [3]; vanadate 40 µM): 312 | Number of colonies Exp 2 (α-21 cells [3]; vanadate 40 µM): 271 | Number of colonies Average (α-21 cells [3]; vanadate 80 µM): 82 | Number of colonies Exp 1 (α-21 cells [3]; vanadate 80 µM): 90 | Number of colonies Exp 2 (α-21 cells [3]; vanadate 80 µM): 73
